Experiments:
Assay type in all cases: cell-based, human
[1] = system: HTT; assay: Splicing RT-qPCR assay, HTT mRNA canonical junction (CJ) and alternative junction (AJ); details: Homo sapiens; for AC50: increase in AJ mRNA
In short: (§1)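 A673 or K562 cells were treated 24 h at 37 °C with an 11-point 3-fold dilution series (top 10 uM final, DMSO ≤0.25%). Lysates underwent one-step RT-qPCR for canonical (CJ) and alternative (AJ) junctions; Ct normalized to GAPDH, GUSB or PPIA and DMSO control via 2^(−ΔΔCt), expressed as percentage response.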

[2] = system: Target C; assay: Splicing RT-qPCR panel, Target C canonical junction (CJ) mRNA; details: Homo sapiens, RT-qPCR panel, canonical junction mRNA; compound concentration having 50% response in CJ decrease; read-out: Target C IC50 (decrease in CJ mRNA levels)
In short: as §1

[3] = system: Target C; assay: HiBiT protein abundance assay, Target C; details: Homo sapiens, K562, 24 h, Table 13A, modified K562 cells
In short: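 Target protein levels in engineered HiBiT-tagged cells were read by lytic luminescence after 24 h compound exposure (10000 cells/well, 10 μM top final, 3-fold steps, ≤0.25% DMSO). Unmodified K562 served as baseline; four-parameter regression gave concentration reducing abundance to 50%.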

[4] = system: MYB; assay: Splicing RT-qPCR assay, MYB mRNA canonical junction (CJ) and alternative junction (AJ); details: Homo sapiens; for AC50: increase in AJ mRNA
In short: as §1

[5] = system: HTT; assay: HiBiT protein abundance assay, HTT; details: Homo sapiens, K562, 24 h, Table 13A, modified K562 cells
In short: (§2)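 Protein abundance measured by Nano-Glo HiBiT lytic luminescence after 24 h compound exposure of modified K562 lines, 10000 cells/well, top final dose 10 μM in 3-fold steps. Four-parameter fit of control-normalised response gives concentration reducing abundance to 50% of untreated.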

[6] = system: SMN2; assay: Splicing RT-qPCR panel, SMN2 canonical junction (CJ) mRNA; details: Homo sapiens, RT-qPCR panel, canonical junction mRNA; compound concentration having 50% response in CJ decrease; read-out: SMN2 IC50 (decrease in CJ mRNA levels)
In short: as §1

[7] = system: MYB; assay: HiBiT protein abundance assay, MYB; details: Homo sapiens, K562, 24 h, Table 13A, modified K562 cells
In short: as §2

[8] = 24 h, decrease in CJ mRNA, A673 or K562 cells, 24 hours treatment, RT-qPCR, read-out: HTT CJ IC50
[9] = 24 h, A673 or K562 cells, 24 hours treatment, RT-qPCR
[10] = RT-qPCR panel, canonical junction mRNA, compound concentration having 50% response in CJ decrease, read-out: HTT IC50 (decrease in CJ mRNA levels)
[11] = 24 h, decrease in CJ mRNA, A673 or K562 cells, 24 hours treatment, RT-qPCR, read-out: MYB CJ IC50
[12] = RT-qPCR panel, canonical junction mRNA, compound concentration having 50% response in CJ decrease, read-out: MYB IC50 (decrease in CJ mRNA levels)

Structure (SMILES)	IC50 [1, 8] [µM]	AC50 [1, 9] [µM]	IC50 [1, 10] [µM]	IC50 [2] [µM]	IC50 [3] [µM]	IC50 [4, 11] [µM]	AC50 [4, 9] [µM]	IC50 [4, 12] [µM]	IC50 [5] [µM]	IC50 [6] [µM]	IC50 [7] [µM]
CN(c1ccc(-c2ccc(-c3cnnc(O)c3)c3scnc23)nn1)C1CC(C)(C)NC(C)(C)C1 [Compound 234]	> 10	> 10	> 10	> 10	> 10	> 10	> 10	> 10	1 to 10	0.1 to 1	1 to 10
CN1C[C@@H]2[C@H](C1)[C@H]2N(C)c1ccc(-c2ccc(-c3cn[nH]c3)c3ncsc23)nn1 [Compound 235]	> 10	> 10	> 10	> 10	0.1 to 1	> 10	> 10	> 10	1 to 10	1 to 10	1 to 10
c1n[nH]cc1-c1ccc(-c2ccc(NC3CNC3)nn2)c2[nH]ncc12 [Compound 237]	> 10	> 10	> 10	> 10	> 10	> 10	> 10	> 10	> 10	> 10	> 10
c1n[nH]cc1-c1ccc(-c2ccc(N3CCC4(CC3)CNC4)nn2)c2[nH]ncc12 [Compound 238]	> 10	> 10	> 10	> 10	> 10	> 10	> 10	> 10	> 10	> 10	> 10
c1n[nH]cc1-c1ccc(-c2ccc(N3CCC4(CCNCC4)C3)nn2)c2[nH]ncc12 [Compound 239]	> 10	> 10	> 10	> 10	> 10	> 10	> 10	> 10	> 10	> 10	> 10
c1n[nH]cc1-c1ccc(-c2ccc(N3CCC4(CCNC4)CC3)nn2)c2[nH]ncc12 [Compound 240]	> 10	> 10	> 10	> 10	> 10	> 10	> 10	> 10	> 10	> 10	> 10
c1n[nH]cc1-c1ccc(-c2ccc(N3CCNCC3)nn2)c2[nH]ncc12 [Compound 241]	> 10	1 to 10	> 10	> 10	1 to 10	> 10	1 to 10	> 10	1 to 10	1 to 10	1 to 10
CN(c1ccc(-c2ccc(-c3cnn(C)c3)c3cn[nH]c23)nn1)C1CC(C)(C)NC(C)(C)C1 [Compound 243]	1 to 10	1 to 10	1 to 10	> 10	> 10	1 to 10	1 to 10	1 to 10	1 to 10	0.1 to 1	1 to 10
c1n[nH]cc1-c1ccc(-c2ccc(N3CCCC4(CNC4)C3)nn2)c2[nH]ncc12 [Compound 251]	> 10	> 10	> 10	> 10	> 10	> 10	> 10	> 10	> 10	> 10	> 10
c1n[nH]cc1-c1ccc(-c2ccc(N3CCC4(CCCNC4)C3)nn2)c2[nH]ncc12 (centres unmarked) [Compound 252]	> 10	> 10	> 10	> 10	> 10	> 10	> 10	> 10	> 10	1 to 10	1 to 10
c1n[nH]cc1-c1ccc(-c2ccc(N3CCCC4(CCNC4)C3)nn2)c2[nH]ncc12 (centres unmarked) [Compound 253]	> 10	> 10	> 10	> 10	> 10	> 10	> 10	> 10	> 10	> 10	> 10
c1n[nH]cc1-c1ccc(-c2ccc(N3C[C@H]4CNC[C@H]4C3)nn2)c2[nH]ncc12 [Compound 254]	> 10	> 10	> 10	> 10	> 10	> 10	1 to 10	> 10	> 10	0.1 to 1	> 10
CN1C[C@@H]2CN(c3ccc(-c4ccc(-c5cn[nH]c5)c5cn[nH]c45)nn3)C[C@@H]2C1 [Compound 255]	> 10	> 10	> 10	> 10	> 10	> 10	1 to 10	> 10	1 to 10	0.1 to 1	1 to 10
c1n[nH]cc1-c1ccc(-c2ccc(NC3CCNCC3)nn2)c2[nH]ncc12 [Compound 263]	> 10	> 10	> 10	> 10	> 10	> 10	> 10	> 10	> 10	> 10	> 10
CN(c1ccc(-c2ccc(-n3cccn3)c3cn[nH]c23)nn1)C1CCNCC1 [Compound 264]	> 10	> 10	> 10	> 10	1 to 10	> 10	> 10	> 10	1 to 10	1 to 10	1 to 10
c1nc2c(-c3cn[nH]c3)ccc(-c3ccc(N4CCC5(CCN5)C4)nn3)c2s1 (centres unmarked) [Compound 265]	> 10	> 10	> 10	> 10	> 10	1 to 10	> 10	1 to 10	> 10	0.1 to 1	> 10
c1nc2c(-c3cn[nH]c3)ccc(-c3ccc(N4CCC45CCNCC5)nn3)c2s1 [Compound 266]	1 to 10	> 10	1 to 10	> 10	> 10	1 to 10	> 10	1 to 10	1 to 10	> 10	1 to 10
[2H]C([2H])([2H])N(c1ccc(-c2ccc(-c3cn[nH]c3)c3cn[nH]c23)nn1)C1CCNCC1 [Compound 267]	> 10	> 10	> 10	> 10	1 to 10	> 10	> 10	> 10	1 to 10	1 to 10	1 to 10
CN(c1ccc(-c2ccc(-c3cn[nH]c3)c3cn[nH]c23)nn1)C1CCNCC1 [Compound 273]	> 10	> 10	> 10	> 10	1 to 10	> 10	> 10	> 10	> 10	1 to 10	1 to 10
CCN(c1ccc(-c2ccc(-c3cn[nH]c3)c3cn[nH]c23)nn1)C1CCNCC1 [Compound 274]	> 10	> 10	> 10	> 10	1 to 10	> 10	> 10	> 10	1 to 10	1 to 10	1 to 10
CC1(C)CC(Nc2ccc(-c3ccc(-c4cn[nH]c4)c4cn[nH]c34)nn2)CC(C)(C)N1 [Compound 275]	0.1 to 1	1 to 10	0.1 to 1	1 to 10	< 0.1	0.1 to 1	1 to 10	0.1 to 1	0.1 to 1	0.1 to 1	0.1 to 1
c1nc2c(-c3cn[nH]c3)ccc(-c3ccc(N4CCC45CCCNC5)nn3)c2s1 (centres unmarked) [Compound 276]	1 to 10	1 to 10	1 to 10	1 to 10	1 to 10	1 to 10	1 to 10	1 to 10	1 to 10	1 to 10	1 to 10

Source: patent publication US20240368163A1, “COMPOUNDS AND METHODS FOR MODULATING SPLICING” (REMIX THERAPEUTICS INC., priority 2021, published 2024)
